Here are results for 15 molecules from patent US9012443B2 (Amgen Inc., priority 2011, dated 2015).

Common to all, as to format: cell-based
Series [1] addresses T1, Nav 1.7 (Homo sapiens (Human), UniProt Q15858). Description: Nav 1.7 IWQ in vitro assay (IonWorks Quattro population patch-clamp). The following applies: 293 cells stably transfected with Nav 1.7. The method in brief: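 HEK293 cells stably expressing Nav 1.7, recorded by automated population patch-clamp with a train of depolarizations producing increasing inactivation. Single compound concentration added during 3–8 min unclamped period, then same protocol repeated. Leak-corrected current at 26th pulse to −20 mV gave percent block (duplicate); IC50 fitted from concentration–block curves.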
(The patch-clamp technique gives a direct electrical read-out from membranes.)

Series [2] deals with T1, Nav 1.7. Description: Nav 1.7 in vitro PX assay (PatchXpress whole cell voltage clamp). The following applies: 293 cells, human Nav1.7, partially inactivated state; read-out: Nav1.7 PX IC50 IP. In a few lines:
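HEK293 cells stably expressing human Nav1.7, whole-cell voltage clamp on PatchXpress, held at potential giving 20–50% inactivation; current elicited by 20 msec pulse to −10 mV.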

A further series addresses Nav 1.5 (Homo sapiens (Human), UniProt Q14524). Description: Nav 1.5 in vitro PX assay (PatchXpress whole cell voltage clamp). The method in brief: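 HEK293 cells stably expressing Nav 1.5, whole-cell voltage clamp held at −50 mV; 20 msec test pulses to 0 mV at 0.1 Hz, each preceded by a step to −120 mV.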
[3] abbreviates: second part of table, read-out: Nav1.7 IWQ IC50 IP.
The mark [4] stands for this setting: 293 cells stably transfected with Nav 1.5, second part of table, read-out: Nav1.5 PX IC50.
[5] abbreviates: first part of table, read-out: Nav 1.7 IWQ IC50.
[6] abbreviates: 293 cells stably transfected with Nav 1.5, first part of table, read-out: Nav 1.5 PX IC50.

Read-outs that look alike come from different tables or passages of the source.

T1 sequence (Q15858 whole entry): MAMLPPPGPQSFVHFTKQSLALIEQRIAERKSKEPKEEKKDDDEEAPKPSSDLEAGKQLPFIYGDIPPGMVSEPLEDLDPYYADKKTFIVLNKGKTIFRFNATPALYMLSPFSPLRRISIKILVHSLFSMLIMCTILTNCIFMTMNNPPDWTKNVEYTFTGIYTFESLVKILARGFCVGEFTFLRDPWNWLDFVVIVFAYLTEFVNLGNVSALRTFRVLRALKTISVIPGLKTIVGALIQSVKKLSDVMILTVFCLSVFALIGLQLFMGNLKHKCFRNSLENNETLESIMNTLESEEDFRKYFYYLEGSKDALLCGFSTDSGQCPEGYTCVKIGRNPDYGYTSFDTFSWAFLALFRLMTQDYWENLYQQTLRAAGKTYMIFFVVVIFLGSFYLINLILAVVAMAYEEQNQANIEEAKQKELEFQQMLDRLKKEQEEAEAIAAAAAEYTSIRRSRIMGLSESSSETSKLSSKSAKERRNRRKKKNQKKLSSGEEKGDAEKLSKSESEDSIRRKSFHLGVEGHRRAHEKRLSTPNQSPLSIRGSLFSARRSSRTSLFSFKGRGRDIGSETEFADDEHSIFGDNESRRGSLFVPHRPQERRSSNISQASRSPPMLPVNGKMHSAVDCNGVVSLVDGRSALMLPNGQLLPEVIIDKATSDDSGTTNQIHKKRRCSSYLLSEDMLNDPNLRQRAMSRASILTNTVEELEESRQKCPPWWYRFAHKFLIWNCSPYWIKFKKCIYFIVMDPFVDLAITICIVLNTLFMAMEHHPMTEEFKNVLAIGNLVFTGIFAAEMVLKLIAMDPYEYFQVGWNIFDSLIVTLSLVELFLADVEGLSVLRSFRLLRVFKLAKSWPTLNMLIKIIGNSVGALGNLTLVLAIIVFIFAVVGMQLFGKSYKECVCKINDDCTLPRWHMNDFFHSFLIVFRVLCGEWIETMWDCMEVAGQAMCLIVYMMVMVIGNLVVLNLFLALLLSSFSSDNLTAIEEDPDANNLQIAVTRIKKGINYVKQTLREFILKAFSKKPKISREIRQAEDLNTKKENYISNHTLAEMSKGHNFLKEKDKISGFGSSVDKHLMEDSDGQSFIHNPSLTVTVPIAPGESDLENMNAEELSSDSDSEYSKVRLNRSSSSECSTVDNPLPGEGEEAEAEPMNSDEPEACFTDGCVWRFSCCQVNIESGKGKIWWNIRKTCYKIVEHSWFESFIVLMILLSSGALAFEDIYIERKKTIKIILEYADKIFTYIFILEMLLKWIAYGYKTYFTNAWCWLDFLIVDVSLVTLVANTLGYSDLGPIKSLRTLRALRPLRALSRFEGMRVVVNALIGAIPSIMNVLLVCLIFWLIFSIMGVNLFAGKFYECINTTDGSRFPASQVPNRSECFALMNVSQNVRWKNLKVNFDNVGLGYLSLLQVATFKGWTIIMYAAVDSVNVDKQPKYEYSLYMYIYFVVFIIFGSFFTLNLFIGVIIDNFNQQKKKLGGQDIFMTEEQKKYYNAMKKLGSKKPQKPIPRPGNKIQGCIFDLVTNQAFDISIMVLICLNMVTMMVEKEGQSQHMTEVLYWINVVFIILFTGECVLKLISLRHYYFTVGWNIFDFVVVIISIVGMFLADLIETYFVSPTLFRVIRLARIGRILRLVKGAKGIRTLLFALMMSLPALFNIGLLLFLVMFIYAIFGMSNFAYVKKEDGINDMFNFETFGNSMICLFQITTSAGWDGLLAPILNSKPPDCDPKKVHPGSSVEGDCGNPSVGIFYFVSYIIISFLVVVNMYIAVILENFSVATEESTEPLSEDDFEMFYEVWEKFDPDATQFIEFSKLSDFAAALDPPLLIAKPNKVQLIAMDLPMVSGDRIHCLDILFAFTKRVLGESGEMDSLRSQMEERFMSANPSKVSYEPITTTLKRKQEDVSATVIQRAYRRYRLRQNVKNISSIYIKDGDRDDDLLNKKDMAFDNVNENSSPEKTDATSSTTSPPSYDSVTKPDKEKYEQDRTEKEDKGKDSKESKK
Nav 1.5, sequence (Q14524 whole entry): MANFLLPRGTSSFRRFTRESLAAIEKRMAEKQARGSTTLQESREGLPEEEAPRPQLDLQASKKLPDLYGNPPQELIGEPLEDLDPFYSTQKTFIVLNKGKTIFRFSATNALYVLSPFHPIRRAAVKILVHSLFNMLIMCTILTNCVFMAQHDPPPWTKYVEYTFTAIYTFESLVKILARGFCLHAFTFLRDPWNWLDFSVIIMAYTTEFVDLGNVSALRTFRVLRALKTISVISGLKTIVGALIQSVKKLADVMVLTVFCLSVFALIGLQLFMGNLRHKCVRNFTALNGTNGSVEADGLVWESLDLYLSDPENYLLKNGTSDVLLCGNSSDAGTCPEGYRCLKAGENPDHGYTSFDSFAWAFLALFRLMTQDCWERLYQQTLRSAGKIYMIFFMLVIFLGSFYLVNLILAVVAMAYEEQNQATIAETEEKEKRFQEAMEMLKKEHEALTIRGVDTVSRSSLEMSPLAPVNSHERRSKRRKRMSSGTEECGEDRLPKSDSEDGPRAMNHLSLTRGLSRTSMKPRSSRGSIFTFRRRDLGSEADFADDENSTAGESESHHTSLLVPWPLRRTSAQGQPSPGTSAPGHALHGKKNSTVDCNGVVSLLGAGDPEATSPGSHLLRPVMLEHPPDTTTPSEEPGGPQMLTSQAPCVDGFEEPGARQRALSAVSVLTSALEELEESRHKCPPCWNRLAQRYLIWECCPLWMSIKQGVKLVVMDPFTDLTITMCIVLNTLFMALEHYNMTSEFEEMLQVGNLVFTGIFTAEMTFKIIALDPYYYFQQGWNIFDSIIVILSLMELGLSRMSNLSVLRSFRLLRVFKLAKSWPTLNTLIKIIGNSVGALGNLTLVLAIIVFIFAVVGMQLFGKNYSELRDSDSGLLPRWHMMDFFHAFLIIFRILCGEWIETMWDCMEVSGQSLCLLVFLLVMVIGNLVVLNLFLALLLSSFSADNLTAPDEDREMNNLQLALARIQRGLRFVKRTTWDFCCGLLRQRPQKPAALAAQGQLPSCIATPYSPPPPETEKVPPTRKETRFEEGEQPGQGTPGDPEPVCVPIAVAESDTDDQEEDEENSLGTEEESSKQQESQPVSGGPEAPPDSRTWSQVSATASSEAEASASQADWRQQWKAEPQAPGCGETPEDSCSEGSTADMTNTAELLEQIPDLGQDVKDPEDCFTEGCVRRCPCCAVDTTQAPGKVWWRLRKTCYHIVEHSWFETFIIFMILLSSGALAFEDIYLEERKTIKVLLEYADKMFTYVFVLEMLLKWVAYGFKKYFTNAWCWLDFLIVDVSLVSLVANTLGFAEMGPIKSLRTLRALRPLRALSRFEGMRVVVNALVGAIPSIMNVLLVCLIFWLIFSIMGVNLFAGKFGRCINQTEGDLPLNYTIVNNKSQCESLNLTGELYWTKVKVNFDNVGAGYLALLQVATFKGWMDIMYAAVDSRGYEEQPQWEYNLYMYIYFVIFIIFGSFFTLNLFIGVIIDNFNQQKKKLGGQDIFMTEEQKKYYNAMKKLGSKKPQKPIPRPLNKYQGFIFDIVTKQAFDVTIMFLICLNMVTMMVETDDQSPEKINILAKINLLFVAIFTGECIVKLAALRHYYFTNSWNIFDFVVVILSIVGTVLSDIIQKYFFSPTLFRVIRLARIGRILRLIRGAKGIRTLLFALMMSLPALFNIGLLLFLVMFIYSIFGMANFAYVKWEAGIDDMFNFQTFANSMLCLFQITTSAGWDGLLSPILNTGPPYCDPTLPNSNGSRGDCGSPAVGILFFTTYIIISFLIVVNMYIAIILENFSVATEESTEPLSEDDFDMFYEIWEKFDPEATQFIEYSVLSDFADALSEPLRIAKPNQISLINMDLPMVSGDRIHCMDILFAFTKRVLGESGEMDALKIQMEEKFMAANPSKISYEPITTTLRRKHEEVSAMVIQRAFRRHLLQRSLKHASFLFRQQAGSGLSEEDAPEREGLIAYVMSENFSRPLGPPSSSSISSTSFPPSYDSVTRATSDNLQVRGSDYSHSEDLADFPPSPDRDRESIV

What is called IC50 is the concentration that gives 50% inhibition. In the case of `COc1cc(C(F)(F)F)ccc1-c1ccnc2cc(S(=O)(=O)Nc3nccs3)ccc12` [Example 276, 4-(2-METHOXY-4-(TRIFLUOROMETHYL)PHENYL)-N-(THIAZOL-2-YL)QUINOLINE-7-SULFONAMIDE], the IC50 at Nav 1.7 [1] (setting [3]) amounted to 50 nM; at Nav 1.7 [2] it was 350 nM; at Nav 1.5 (setting [4]) it was 12300 nM.
Consider `COc1cc(-c2cccc(F)c2)ccc1-c1nccc2cc(S(=O)(=O)Nc3ccncn3)ccc12` [Example 199, 1-(3′-FLUORO-3-METHOXY-[1,1′-BIPHENYL]-4-YL)-N-(PYRIMIDIN-4-YL)ISOQUINOLINE-6-SULFONAMIDE 2,2,2-TRIFLUOROACETATE], for which the IC50 on Nav 1.7 [1] (setting [3]) is 20 nM; on Nav 1.7 [2], 156 nM; at Nav 1.5 (setting [4]), greater than 30000 nM.
The corresponding values for `COc1cc(C(F)(F)F)ccc1-c1nccc2cc(S(=O)(=O)Nc3ncns3)ccc12` [Example 195, 1-(2-METHOXY-4-(TRIFLUOROMETHYL)PHENYL)-N-(1,2,4-THIADIAZOL-5-YL)ISOQUINOLINE-6-SULFONAMIDE] are 10 nM, 134 nM and greater than 30000 nM.
For the molecule `N#Cc1cc(C(F)(F)F)ccc1-c1cccc2cc(S(=O)(=O)Nc3ncns3)ccc12` [Example 22], the results for the IC50 on Nav 1.7 [1] (setting [5]) and on Nav 1.5 (setting [6]) were 40 nM and greater than 30000 nM, respectively.
The corresponding values for `O=S(=O)(Nc1ncns1)c1ccc2c(-c3ccc(Cl)cc3Cl)cccc2c1` [Example 40] are 1970 nM and greater than 30000 nM.
The matching figures for `O=S(=O)(Nc1ncns1)c1ccc2c(-c3ccc(C(F)(F)F)cc3-c3cn[nH]c3)nccc2c1` [Example 55, 1-(2-(1H-PYRAZOL-4-YL)-4-(TRIFLUOROMETHYL)PHENYL)-N-(1,2,4-THIADIAZOL-5-YL)ISOQUINOLINE-6-SULFONAMIDE]: 10 nM and greater than 30000 nM.
The corresponding values for `CCOc1cc(C(F)(F)F)ccc1-c1cccc2cc(S(=O)(=O)Nc3ncns3)ccc12` [Example 10] are 50 nM and 6680 nM.
For `O=S(=O)(Nc1ncns1)c1ccc2c(-c3ccc(F)cc3Cl)cccc2c1` [Example 5], the IC50 at Nav 1.7 [1] (setting [5]) was 170 nM; on Nav 1.5 (setting [6]), 23800 nM.
In the case of `COc1cc(C(F)(F)F)ccc1-c1cccc2cc(S(=O)(=O)Nc3ncns3)ccc12` [Example 12], the 50% inhibitory concentration (IC50) at Nav 1.7 [1] (setting [5]) was determined as 10 nM; on Nav 1.5 (setting [6]) it was 11600 nM.
The corresponding values for `O=S(=O)(Nc1ncns1)c1ccc2c(-c3ccc(C(F)(F)F)cc3Br)nccc2c1` [Example 50, 1-(2-BROMO-4-(TRIFLUOROMETHYL)PHENYL)-N-(1,2,4-THIADIAZOL-5-YL)ISOQUINOLINE-6-SULFONAMIDE] are 30 nM and greater than 30000 nM.
As to `O=S(=O)(Nc1ncns1)c1ccc2c(N3CCOC(c4ccccc4)C3)cccc2c1` (single isomer, unassigned) [14 (isomer 2), 5-(2-phenylmorpholino)-N-(1,2,4-thiadiazol-5-yl)naphthalene-2-sulfonamide], the half-inhibitory concentration (IC50) was 1800 nM on Nav 1.7 [1] (setting [5]) and greater than 30000 nM at Nav 1.5 (setting [6]).
Take `O=S(=O)(Nc1ncns1)c1ccc2c(-c3ccc(C(F)(F)F)cc3Br)cccc2c1` [Example 23]: the IC50 on Nav 1.7 [1] (setting [5]) was found to be 110 nM; on Nav 1.5 (setting [6]), 20700 nM.
The matching figures for `O=S(=O)(Nc1ncns1)c1ccc2c(-c3ccc(C(F)(F)F)cc3-c3ccncc3)nccc2c1` [Example 53, 1-(2-(PYRIDIN-4-YL)-4-(TRIFLUOROMETHYL)PHENYL)-N-(1,2,4-THIADIAZOL-5-YL)ISOQUINOLINE-6-SULFONAMIDE]: 70 nM and greater than 30000 nM.
In the case of `COc1cc(C(F)(F)F)ccc1-c1ncnc2cc(S(=O)(=O)Nc3nccs3)ccc12` [Example 261, 4-(2-methoxy-4-(trifluoromethyl)phenyl)-N-(thiazol-2-yl)quinazoline-7-sulfonamide], the IC50 at Nav 1.7 [1] (setting [3]) is 10 nM; on Nav 1.7 [2], 200 nM; at Nav 1.5 (setting [4]) it was greater than 30000 nM.
In the case of `O=S(=O)(Nc1ncns1)c1ccc2c(-c3ccc(Cl)cc3C3=CCNCC3)cccc2c1` [Example 26], the IC50 was 20 nM on Nav 1.7 [1] (setting [5]) and greater than 30000 nM against Nav 1.5.
